We go through 17 compounds from US8008071B2 (University of South Florida, priority 1999, dated 2011).

The subject of experiment [1] is PKCβI mRNA. As to the kind of experiment: RT-PCR of PKCβI mRNA in synchronized A10 cells. In kind it is cell-based, rat. The settings on record: 4 hours. Here is the method: (§1) Reverse Transcriptase-Polymerase Chain Reaction. […] The upstream sense primer corresponded to the C4 kinase domain common to both PKCβI and PKCβII (5′ […] 3′) [SEQ ID NO:4] and the downstream antisense primer was specific for PKCβI (5′ […] 3′) [SEQ ID NO:5] (Chalfant et al., 1995, pp.13326-13332). These primers detect inclusion of the PKCβII exon in the mature mRNA as well as PKCβI mRNA. Sense and antisense primers for β-actin (#5402-3) were obtained from Clonetech. PCR was performed using ampliTaq Gold DNA polymerase from PERKIN ELMER (#N808-0240) on 10% of the reverse transcriptase reaction product. Following 35 cycles of amplification in a BIOMETRA Trioblock thermocycler (PKCβI and -βII: 95° C., 30 sec; 64° C., 2 min for 35 cycles; and for β-actin: 94° C., 1 min; 58° C., 1 min; and 72° C., 3 min for 35 cycles), 25% of the PCR reaction was resolved on a 1.2% agarose gel. Bands were observed under UV light and photographed.
Thus, the PKCβII transcript contains the PKCβI exon with the poly A tail and a common 3′ untranslated region (FIG. 25). Inclusion of the alternatively spliced exon encodes a stop codon such that the PKCβI exon facilitates poly-adenylation but the exon is not translated, thereby generating PKCβII protein. […] Although, this assay is semi-quantitative, the ration of PKCβII to PKCβI mRNA was about 2 to 1.

For experiment [2], the system named is PKCβII mRNA. As to the kind of experiment: RT-PCR of PKCβII mRNA in synchronized A10 cells. In kind it is cell-based, rat. The conditions noted are these: for effect of inhibitor on glucose-induced destabilization of PKCβII mRNA: 30 minutes pre-incubation, then 25 mM glucose; for effect of inhibitor on glucose-induced destabilization of PKCβII mRNA / PERCENT OF PKCβII mRNA POST-GLUCOSE TREATMENT: synchronized A10 cells; for PERCENT OF PKCβII mRNA POST-GLUCOSE TREATMENT: inhibitor added 30 minutes prior to 25 mM glucose, 5.5 mM glucose control = 100%; for effect of glucose analogs on PKCβII mRNA: 25 mM analog. The protocol: as §1
Primers were designed for the upstream common kinase region (C4) (-sense primer) and the PKCβI exon (-antisense primer) for simultaneous amplification of both PKCβI and -βII messages by RT-PCR.

For experiment [3], the system named is PKCβII mRNA. As to the kind of experiment: RT-PCR of PKCβII mRNA in primary human aortic smooth muscle cells (AoSMC). In kind it is cell-based. The settings on record: 4 hours; for effect on PKCβII mRNA: 100 nM insulin. Here is the method: (§2) Cells were grown to >90% confluency and medium was changed every 5 days.
as §1

Experiment [4] has as its system PKCβI mRNA. As to the kind of experiment: RT-PCR of PKCβI mRNA in primary human aortic smooth muscle cells (AoSMC). In kind it is cell-based. The settings on record: 100 nM insulin, 4 hours. Here is the method: as §2, §1
The subject of experiment [5] is glucose-sensing element. As to the kind of experiment: Specificity of the glucose-sensing element for hexoses.
The test system of experiment [6] is PKCβ(I+II) mRNA. The experiment can be described thus: Northern blot of steady state PKCβ(I+II) mRNA in synchronized A10 cells. The format is cell-based, rat. The conditions noted are these: 25 mM mannitol osmotic control, 15-18 hours. The protocol: Cell culture. […] Cells were grown to >90% confluency and media was changed every 4 days. Cell synchronization was achieved by serum deprivation (0.5% FBS) for 48 hours (see, for example, Ross, R., C. Nist, B. Kariya, M. J. Rivest, E. Raines, and J. Callis. 1978. Physiological quiescence in plasma-derived serum: Influence of platelet derived growth factor on cell growth in culture. J. Cell. Physiol. 97:497-508).
Isolation of RNA and Northern Blot Analysis. Total cellular RNA was isolated from 100-mm plates using Tri-Reagent (Molecular Research Center, Inc.). […] Ethidium bromide was added in the loading buffer for visualization and quantitation of 18S and 28S RNA. After fractionation, the integrity and loading of RNA was assessed under UV light (23,24). […] Membranes were washed with high stringency conditions (1×SSC, 0.1% SDS for 15 minutes at 42° C. followed by 0.11× SSC, 0.1% SDS for 15 minutes at 42° C.), and quantitated using Molecular Dynamics Phosphoimaging System. In experiments, where mentioned, membranes were exposed to X-ray film and the autoradiograms were quantitated densitometrically.
Cells incubated with 25 mM mannitol were used as osmotic controls. Total RNA was extracted and the mRNA transcript levels were detected using a full length PKCβ cDNA probe which would cross-hybridize with both PKCβI and PKCβII mRNAs. […]

The test system of experiment [7] is rat VSMC. The settings on record: cited from earlier work.
In experiment [8] the test system is PKCβ promoter. As to the kind of experiment: PKCβ promoter-CAT deletion constructs transiently transfected into A10 cells. The format is cell-based, rat. The conditions noted are these: 100 nM TPA. The protocol:
Calcium-phosphate transfections. For promoter studies, A10 cells were grown and synchronized in 6-well plates. Three hours prior to transfections, fresh medium (DMEM containing 10% fetal bovine serum) was substituted on A10 cells. pβG or pβG-PKCβII expression vectors were transfected with the calcium-phosphate-DNA precipitate. Following overnight incubation, calcium phosphate-DNA precipitate was washed off with 1× Dulbecco's phosphate buffered saline (DPBS) and replaced with fresh medium. For stably-transfected cell selection, 0.7 mg/ml G-418 was added to the media. It was changed every 4 days and 10-14 days later, the colonies were pooled and maintained in DMEM (10% FBS) with 0.2 mg/ml G-418.
Since PKCβ is a low copy gene, nuclear run-on assays were not a practical approach to examine transcriptional regulation. […] PKCβ promoter constructs with successive deletions of the 5′ region cloned in front of a promoterless chloramphenicol acetyltransferase (CAT) as the reporter gene were transiently transfected into A10 cells (FIG. 19). pSV-β-Galactosidase was co-transfected with the CAT constructs to normalize the efficiency of transfection. Simultaneous positive and negative controls were carried out as described previously.
Transcriptional repression of PKCβ promoter by transcription factors in response to high glucose was anticipated. […]

For experiment [9], the system named is PKCβ(I+II) mRNA. As to the kind of experiment: In vitro RNA stability assay with post-nuclear extracts of A10 cells. The arrangement: species or system rat. The conditions noted are these: 50 mM EDTA added to the reaction mix.
Procedure: RNA stability assay. To prepare post-nuclear extracts (see, for example, Wager, R. E. and R. K. Assoian. 1990. A phorbol ester-regulated ribonuclease system controlling transforming growth factor BI gene expression in hematopoietic cells. Mol. Cell. Biol. 10:5983-5990), synchronized A1O cells, re-initiated to proliferate with DMEM+10% FBS were treated with either 5.5 mM or 25 mM glucose for 2 h to 24 h, then washed and collected in ice-cold 1× DPBS. The cellular pellet was re-suspended in extract buffer containing 0.01M Tris-HCl, 0.15M NaCl, 0.5% Nonidet P-40, leupeptin (10 μg/ml) and aprotonin (10 μg/ml) incubated on ice for 10 minutes and carefully layered over extract buffer containing 24% sucrose. Samples were centrifuged over a sucrose gradient at 1 0,000xg for 20 minutes at 4° C. Post-nuclear extract was separated, stored on ice and aliquots taken for protein concentration using Bradford protein assay (see Bradford, M. M. 1976. A rapid and sensitive method for the quantitation of microgram quantities of protein utilizing the principle of protein-dye bindingno title. Anal. Biochem. 72:248-254). Total RNA (10 μg) from A10 cells, was incubated with 2.7% (vol/vol) of the post-nuclear extracts for 30 minutes at 4° C. in 50 μl (final volume) of extract buffer. When specifically noted, 50 mM EDTA was added to the reactions as a control to inhibit nuclease activity. […]
Experiment [10] addresses PP1. The settings on record: cited from earlier work.
The target of experiment [11] is PP2B. The settings on record: cited from earlier work.
Experiment [12] concerns the target PP2A. The settings on record: cited from earlier work.
In experiment [13] the test system is IL-3 3′-UTR ARE transcript. The conditions noted are these: cited from earlier work.

pKi: −log10 of the molar value. Entries after “also recorded” stand apart in the source; their conditions may differ.

For `N[C@H]1C(O)O[C@H](CO)[C@@H](O)[C@@H]1O` (stereo partly shown) [Glucosamine], the “effect on PKCβI mRNA” value in [1] (10 mM glucosamine in the presence of 5.5 mM glucose) is reported as “did not destabilize; also recorded: did not affect”. For the same compound, the “effect on PKCβII mRNA” value in experiment [2] (10 mM glucosamine in the presence of 5.5 mM glucose, 4 hours) is listed as “did not destabilize; also recorded: did not affect”.

As to `CO[C@H]1[C@@H](OC)C[C@H](C)[C@@H](OC)C2=CC(=O)C=C(NC(=O)/C(C)=C/C=C\[C@H](OC)[C@@H](OC(N)=O)/C(C)=C/[C@@H]1C)C2=O` [Herbimycin A], in [2], the “effect of inhibitor on glucose-induced destabilization of PKCβII mRNA” value (shortened to “effect of inhibitor”) is recorded as “prevented” and the “PERCENT OF PKCβII mRNA POST-GLUCOSE TREATMENT” value came out at 90%.

For the compound `CO[C@@H]([C@H](O)[C@H](O)CO)[C@@H](O)C=O` [3-O-Methylglucose, 3-O-methylglucose], the “effect of glucose analogs on PKCβII mRNA” value in [2] (4 hours) is “destabilized”.

For the compound “insulin: hormone that promotes glucose uptake”, the “effect on PKCβII mRNA” value in experiment [3] is “did not significantly affect”; in experiment [3] (listed as Insulin), “did not destabilize”. Also, in experiment [3] (25 mM glucose+100 nM insulin), the “PKCβII mRNA diminished” value is given as 60%. Moreover, the figures for the “effect on PKCβI mRNA” value in experiment [4] and in experiment [4] (listed as Insulin) were “did not significantly affect” and “did not destabilize”, respectively.

Consider `OC[C@@H](O)[C@@H](O)[C@H](O)[C@H](O)CO` [mannitol], for which the “destabilization of the glucose-sensing element” value in experiment [5] is recorded as “do not destabilize”. For the same compound, in experiment [1] (5.5 mM glucose+19.5 mM mannitol (osmotic control)), the “levels of PKCβI mRNA” value is “remained unchanged”. Moreover, the “PKCβ(I+II) mRNA levels” value in experiment [6] was “remained unchanged”. The “levels of PKCβII mRNA” value in [2] (5.5 mM glucose+19.5 mM mannitol (osmotic control), 4 hours) was “did not; also recorded: remained unchanged”.

Take `CO[C@@H]1[C@H](N(C)C(=O)c2ccccc2)C[C@H]2O[C@]1(C)n1c3ccccc3c3c4c(c5c6ccccc6n2c5c31)C(=O)NC4` [CG 41251]: the “PERCENT OF PKCβII mRNA POST-GLUCOSE TREATMENT” value in experiment [2] was found to be 100%.

`O=CC[C@@H](O)[C@H](O)[C@H](O)CO` [2-DOG, 2-deoxyglucose]: the “effect of glucose analogs on PKCβII mRNA” value in [2] (4 hours) is given as “destabilized”.

In the case of `COc1cccc(-c2cc(=O)c3ccccc3o2)c1N` [PD 98059], the “PERCENT OF PKCβII mRNA POST-GLUCOSE TREATMENT” value in [2] worked out at 5%.

On to `C[C@@H]1C[C@@H]([C@H](O)CC2CC(=O)NC(=O)C2)C(=O)[C@@H](C)C1` [Cycloheximide], for which, in experiment [2], the “effect of inhibitor” value is on record as “did not block” and the “PERCENT OF PKCβII mRNA POST-GLUCOSE TREATMENT” value is given as 10%.

As to `O=c1cc(N2CCOCC2)oc2c(-c3ccccc3)cccc12` [LY 294002], in experiment [2], the “PERCENT OF PKCβII mRNA POST-GLUCOSE TREATMENT” value was 90%.

As for `O=C1NC(=O)c2cc(Nc3ccc(F)cc3)c(Nc3ccc(F)cc3)cc21` [CGP53353], the “glucose-stimulated rat VSMC proliferation” value in experiment [7] is “inhibits”.

For `CCCCCCCCCCCCCC(=O)O[C@@H]1[C@@H](C)[C@@]2(O)[C@@H](C=C(CO)C[C@]3(O)C(=O)C(C)=C[C@@H]23)[C@@H]2C(C)(C)[C@]12OC(C)=O` [TPA, 12-O-tetradecanoylphorbol-13-acetate], the “increase of promoter activity in all constructs” value in [8] is “ten-fold”.

`O=C(O)CN(CCN(CC(=O)O)CC(=O)O)CC(=O)O` [EDTA]: the “degradation of RNA by post-nuclear extract” value in experiment [9] is given as “No degradation”.

For orientation: pKi means the negative decadic logarithm of the Ki, by convention in mol/L. Consider `C=C1[C@@H](O)[C@@H]2O[C@]3(CC[C@H](/C=C/[C@@H](C)[C@@H]4CC(C)=C[C@@]5(O[C@H](C[C@@](C)(O)C(=O)O)CC[C@H]5O)O4)O3)CC[C@H]2O[C@@H]1[C@@H](O)C[C@H](C)[C@H]1O[C@@]2(CCCCO2)CC[C@H]1C` [Okadaic acid], for which the pKi in experiment [10] was 7.70; in experiment [12], 9.70. Further, the Ki result in [11] is reported as “less potent inhibitor”. Moreover, the “effect on mRNA stability in GFP reporter system” value in [13] is reported as “mRNA stabilizing compound”. For the same compound, in experiment [2], the “effect of inhibitor” value is “interfered; also recorded: inhibited the destabilization”.

As for `N#C/C(=C/c1ccc(O)c(O)c1)C(=O)NCc1ccccc1` [AG-490], in experiment [2], the “PERCENT OF PKCβII mRNA POST-GLUCOSE TREATMENT” value was found to be 5%.

In the case of `CO[C@H]1C[C@@H]2CC[C@@H](C)[C@@](O)(O2)C(=O)C(=O)N2CCCC[C@H]2C(=O)O[C@H]([C@H](C)C[C@@H]2CC[C@@H](O)[C@H](OC)C2)CC(=O)[C@H](C)/C=C(\C)[C@@H](O)[C@@H](OC)C(=O)[C@H](C)C[C@H](C)/C=C/C=C/C=C/1C` [Rapamycin], in experiment [2], the “PERCENT OF PKCβII mRNA POST-GLUCOSE TREATMENT” value turned out to be 5%.

As for `O=C(CO)[C@@H](O)[C@H](O)[C@H](O)CO` [fructose], the “destabilization of the glucose-sensing element” value in experiment [5] is given as “do not destabilize”.
